Assay results taken from the supplement of paper PMC13380429.

Assays:
A549-ACE2 = test: drug-induced phospholipidosis relative to tamoxifen; higher = more phospholipidosis
U2OS [1] = test: drug sensitivity score (DSS) for viability; higher = more toxic; extreme values may be limits of the assay; details: 72 h
HepG2 [2] = test: as above; details: 72 h
Caco-2 [3] = test: as above; details: 72 h
Vero E6 [4] = test: as above; details: 72 h
Calu-3 [5] = test: as above; details: 72 h
[6] = tested on: A549-ACE2 infected with SARS-CoV-2; test: cell count relative to DMSO; higher = less toxic; details: 24 h
U2OS [7] = test: relative viability EC50 (midpoint between 100% and the lowest measured viability); higher = less toxic; details: 72 h
HepG2 [8] = test: as above; details: 72 h
Caco-2 [9] = test: as above; details: 72 h
Vero E6 [10] = test: as above; details: 72 h
Calu-3 [11] = test: as above; details: 72 h
[12] = tested on: A549-ACE2 infected with SARS-CoV-2; test: SARS-CoV-2 infection rate relative to DMSO; higher = more infection; details: 24 h
U2OS [13] = test: cell viability relative to DMSO; higher = less toxic; details: 72 h
HepG2 [14] = test: as above; details: 72 h
Caco-2 [15] = test: as above; details: 72 h
Vero E6 [16] = test: as above; details: 72 h
Calu-3 [17] = test: as above; details: 72 h
[18] = tested on: A549-ACE2 infected with SARS-CoV-2; test: morphology score (similarity to uninfected cells); higher = more like uninfected cells; details: 24 h

## Cc1ccc(-n2nc(C(C)(C)C)cc2NC(=O)Nc2ccc(OCCN3CCOCC3)c3ccccc23)cc1 [doramapimod]
A549-ACE2; 0.3 µM, 24 h
  drug-induced phospholipidosis: -1.22%
A549-ACE2; 0.3 µM, 48 h
  drug-induced phospholipidosis: -2.88%
A549-ACE2; 0.3 µM, 72 h
  drug-induced phospholipidosis: -1.89%
A549-ACE2; 0.833333 µM, 24 h
  drug-induced phospholipidosis: -3.86%
A549-ACE2; 0.833333 µM, 48 h
  drug-induced phospholipidosis: -4.62%
A549-ACE2; 0.833333 µM, 72 h
  drug-induced phospholipidosis: -3.86%
A549-ACE2; 3.33333 µM, 24 h
  drug-induced phospholipidosis: -2.5%
A549-ACE2; 3.33333 µM, 48 h
  drug-induced phospholipidosis: -1.1%
A549-ACE2; 3.33333 µM, 72 h
  drug-induced phospholipidosis: 1.71%
A549-ACE2; 6.66667 µM, 24 h
  drug-induced phospholipidosis: 7.51%
A549-ACE2; 6.66667 µM, 48 h
  drug-induced phospholipidosis: 6.99%
A549-ACE2; 6.66667 µM, 72 h
  drug-induced phospholipidosis: 12.1%
A549-ACE2; 10 µM, 24 h
  drug-induced phospholipidosis: 20.8%
A549-ACE2; 10 µM, 48 h
  drug-induced phospholipidosis: 15.5%
A549-ACE2; 10 µM, 72 h
  drug-induced phospholipidosis: 19.8%
A549-ACE2; 30 µM, 24 h
  drug-induced phospholipidosis: 66.3%
U2OS [1]
  drug sensitivity score: 0
HepG2 [2]
  drug sensitivity score: 0
Caco-2 [3]
  drug sensitivity score: 0.3
Vero E6 [4]
  drug sensitivity score: 0
Calu-3 [5]
  drug sensitivity score: 0
[6]; 0.3 µM
  cell count: 91%
[6]; 3 µM
  cell count: 105%
[6]; 10 µM
  cell count: 115%
[6]; 30 µM
  cell count: 70%
U2OS [7]
  relative viability EC50: > 10 µM
HepG2 [8]
  relative viability EC50: > 10 µM
Caco-2 [9]
  relative viability EC50: > 10 µM
Vero E6 [10]
  relative viability EC50: > 10 µM
Calu-3 [11]
  relative viability EC50: > 10 µM
[12]; 0.3 µM
  SARS-CoV-2 infection rate: 105%
[12]; 3 µM
  SARS-CoV-2 infection rate: 68%
[12]; 10 µM
  SARS-CoV-2 infection rate: 72%
[12]; 30 µM
  SARS-CoV-2 infection rate: 16%
U2OS [13]; 1 nM
  cell viability: 98.6%
U2OS [13]; 10 nM
  cell viability: 104%
U2OS [13]; 100 nM
  cell viability: 91.6%
U2OS [13]; 1000 nM
  cell viability: 93.7%
U2OS [13]; 10000 nM
  cell viability: 95.6%
HepG2 [14]; 1 nM
  cell viability: 107%
HepG2 [14]; 10 nM
  cell viability: 105%
HepG2 [14]; 100 nM
  cell viability: 99.7%
HepG2 [14]; 1000 nM
  cell viability: 104%
HepG2 [14]; 10000 nM
  cell viability: 111%
Caco-2 [15]; 1 nM
  cell viability: 93.8%
Caco-2 [15]; 10 nM
  cell viability: 108%
Caco-2 [15]; 100 nM
  cell viability: 89.3%
Caco-2 [15]; 1000 nM
  cell viability: 90.9%
Caco-2 [15]; 10000 nM
  cell viability: 93.6%
Vero E6 [16]; 1 nM
  cell viability: 108%
Vero E6 [16]; 10 nM
  cell viability: 95.2%
Vero E6 [16]; 100 nM
  cell viability: 95.5%
Vero E6 [16]; 1000 nM
  cell viability: 95.7%
Vero E6 [16]; 10000 nM
  cell viability: 104%
Calu-3 [17]; 1 nM
  cell viability: 114%
Calu-3 [17]; 10 nM
  cell viability: 97.3%
Calu-3 [17]; 100 nM
  cell viability: 92.4%
Calu-3 [17]; 1000 nM
  cell viability: 97.2%
Calu-3 [17]; 10000 nM
  cell viability: 88.4%
[18]; 0.3 µM
  morphology score: -0.27
[18]; 3 µM
  morphology score: 0.36
[18]; 10 µM
  morphology score: 0.7
[18]; 30 µM
  morphology score: 0.44
